Reference: patent US9682983B2, “BMP inhibitors and methods of use thereof” (THE BRIGHAM AND WOMEN'S HOSPITAL, INC., priority 2013, dated 2017)
Read-outs that look alike come from different tables or passages of the source.

Biological target: human ALK2 (Homo sapiens (Human), UniProt Q04771)
Experiment: LANCE Ultra ULight enzymatic assay (FOP Enzymatic Assay), ALK2
Assay type: biochemical
Settings: 10 μM ATP
[1] = read-out: ALK2 IC50 (nM) at 10 μM ATP

Sequence of human ALK2 (Q04771 21-509): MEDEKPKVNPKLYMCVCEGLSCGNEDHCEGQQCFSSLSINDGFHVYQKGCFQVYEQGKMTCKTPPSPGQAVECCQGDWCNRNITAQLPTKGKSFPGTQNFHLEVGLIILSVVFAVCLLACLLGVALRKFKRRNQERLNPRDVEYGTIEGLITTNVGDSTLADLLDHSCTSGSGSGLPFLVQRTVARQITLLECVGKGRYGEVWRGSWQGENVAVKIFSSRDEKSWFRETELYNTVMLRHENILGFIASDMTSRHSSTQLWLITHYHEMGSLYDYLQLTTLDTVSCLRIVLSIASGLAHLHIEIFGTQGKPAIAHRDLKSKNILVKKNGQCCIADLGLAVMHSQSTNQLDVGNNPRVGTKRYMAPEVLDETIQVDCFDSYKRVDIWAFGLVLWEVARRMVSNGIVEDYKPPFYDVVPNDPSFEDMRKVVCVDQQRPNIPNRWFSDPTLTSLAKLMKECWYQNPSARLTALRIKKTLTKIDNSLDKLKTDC

In the case of `c1ccc2c(-c3cnn4cc(-c5ccc(N6CCNCC6)cn5)cnc34)ccnc2c1` [Compound 3], the IC50 [1] is reported as 16 nM.
Work on `C(#Cc1cnc2c(-c3ccnc4ccccc34)cnn2c1)CN1CCNCC1` [Compound 4, 4-(6-(3-(piperazin-1-yl)prop-1-ynyl)pyrazolo[1,5-a]pyrimidin-3-yl)quinoline] yielded an IC50 [1] of 68 nM.
In the case of `c1ccc2c(-c3cnn4cc(-c5cnc(N6CCNCC6)nc5)cnc34)ccnc2c1` [Compound 5, 4-(6-(2-(piperazin-1-yl)pyrimidin-5-yl)pyrazolo[1,5-a]pyrimidin-3-yl)quinoline], the IC50 [1] is reported as 103 nM.
Work on `c1ccc2c(-c3cnn4cc(-c5ccc(N6C[C@@H]7C[C@H]6CN7)cc5)cnc34)ccnc2c1` [Compound 6, 4-(6-(4-((1S,4S)-2,5-diazabicyclo[2.2.1]heptan-2-yl)phenyl)pyrazolo[1,5-a]pyrimidin-3-yl)quinoline] yielded an IC50 [1] of 12 nM.
`c1ccc2c(-c3cnn4cc(-c5ncc(N6CCNCC6)s5)cnc34)ccnc2c1` [Compound 7, 5-(piperazin-1-yl)-2-(3-(quinolin-4-yl)pyrazolo[1,5-a]pyrimidin-6-yl)thiazole] showed an IC50 [1] of 19 nM.
Molecule `Clc1cc(-c2cnn3cc(-c4ccc(N5CCNCC5)cc4)cnc23)c2ccccc2n1` [Compound 8, 2-chloro-4-(6-(4-(piperazin-1-yl)phenyl)pyrazolo[1,5-a]pyrimidin-3-yl)quinoline] has an IC50 [1] of 24 nM.
`Oc1cc(-c2cnn3cc(-c4ccc(N5CCNCC5)cc4)cnc23)c2ccccc2n1` [Compound 9, 4-(6-(4-(piperazin-1-yl)phenyl)pyrazolo[1,5-a]pyrimidin-3-yl)quinolin-2-ol] was tested, and the IC50 [1] was 792 nM.
`Cc1cc(-c2cnn3cc(-c4ccc(N5[C@H](C)CNC[C@@H]5C)cc4)cnc23)c2ccccc2n1` [Compound 11, 4-(6-(4-((2R,6S)-2,6-dimethylpiperazin-1-yl)phenyl)pyrazolo[1,5-a]pyrimidin-3-yl)-2-methylquinoline] gave an IC50 [1] of 7.7 nM.
Work on `OCCNCc1ccc2c(-c3cnn4cc(-c5ccc(N6CCNCC6)cc5)cnc34)ccnc2c1` [Compound 14, 2-(((4-(6-(4-(piperazin-1-yl)phenyl)pyrazolo[1,5-a]pyrimidin-3-yl)quinolin-7-yl)methyl)amino)ethanol] yielded an IC50 [1] of 517 nM.
Work on `NC(=O)c1ccc2c(-c3cnn4cc(-c5ccc(N6CCNCC6)cc5)cnc34)ccnc2c1` [Compound 15, 4-(6-(4-(piperazin-1-yl)phenyl)pyrazolo[1,5-a]pyrimidin-3-yl)quinoline-7-carboxamide] yielded an IC50 [1] of 127 nM.
`OCc1ccc2c(-c3cnn4cc(-c5ccc(N6CCNCC6)cc5)cnc34)ccnc2c1` [Compound 16, (4-(6-(4-(piperazin-1-yl)phenyl)pyrazolo[1,5-a]pyrimidin-3-yl)quinolin-7-yl)methanol] showed an IC50 [1] of 102 nM.
`CNCc1ccc2c(-c3cnn4cc(-c5ccc(N6CCNCC6)cc5)cnc34)ccnc2c1` [Compound 18, N-methyl-1-(4-(6-(4-(piperazin-1-yl)phenyl)pyrazolo[1,5-a]pyrimidin-3-yl)quinolin-7-yl)methanamine] gave an IC50 [1] of 906 nM.
`CN(C)Cc1ccc2c(-c3cnn4cc(-c5ccc(N6CCNCC6)cc5)cnc34)ccnc2c1` [Compound 19, N,N-dimethyl-1-(4-(6-(4-(piperazin-1-yl)phenyl)pyrazolo[1,5-a]pyrimidin-3-yl)quinolin-7-yl)methanamine] was tested, and the IC50 [1] was 407 nM.
In the case of `NCc1ccc2c(-c3cnn4cc(-c5ccc(N6CCNCC6)cc5)cnc34)ccnc2c1` [Compound 20, (4-(6-(4-(piperazin-1-yl)phenyl)pyrazolo[1,5-a]pyrimidin-3-yl)quinolin-7-yl)methanamine], the IC50 [1] is reported as 706 nM.
`c1cc(-c2cnn3cc(-c4ccc(N5CCNCC5)cc4)cnc23)c2ccc(CN3CCCC3)cc2n1` [Compound 21, 4-(6-(4-(piperazin-1-yl)phenyl)pyrazolo[1,5-a]pyrimidin-3-yl)-7-(pyrrolidin-1-ylmethyl)quinoline] gave an IC50 [1] of 2140 nM.
Work on `O=C(O)c1cccc2c(-c3cnn4cc(-c5ccc(N6CCNCC6)cc5)cnc34)ccnc12` [Compound 22, 4-(6-(4-(piperazin-1-yl)phenyl)pyrazolo[1,5-a]pyrimidin-3-yl)quinoline-8-carboxylic acid] yielded an IC50 [1] of 88 nM.
Molecule `NC(=O)c1cccc2c(-c3cnn4cc(-c5ccc(N6CCNCC6)cc5)cnc34)ccnc12` [Compound 23, 4-(6-(4-(piperazin-1-yl)phenyl)pyrazolo[1,5-a]pyrimidin-3-yl)quinoline-8-carboxamide] has an IC50 [1] of 26 nM.
`OCc1cccc2c(-c3cnn4cc(-c5ccc(N6CCNCC6)cc5)cnc34)ccnc12` [Compound 24, (4-(6-(4-(piperazin-1-yl)phenyl)pyrazolo[1,5-a]pyrimidin-3-yl)quinolin-8-yl)methanol] showed an IC50 [1] of 62 nM.
With `NCc1cccc2c(-c3cnn4cc(-c5ccc(N6CCNCC6)cc5)cnc34)ccnc12` [Compound 25, (4-(6-(4-(piperazin-1-yl)phenyl)pyrazolo[1,5-a]pyrimidin-3-yl)quinolin-8-yl)methanamine] the IC50 [1] was 482 nM.
`CC(=O)Nc1ccc2c(-c3cnn4cc(-c5ccc(N6CCNCC6)cc5)cnc34)ccnc2c1` [Compound 26, N-(4-(6-(4-(piperazin-1-yl)phenyl)pyrazolo[1,5-a]pyrimidin-3-yl)quinolin-7-yl)acetamide] was tested, and the IC50 [1] was 105 nM.
`Nc1ccc2c(-c3cnn4cc(-c5ccc(N6CCNCC6)cc5)cnc34)ccnc2c1` [Compound 27, 4-(6-(4-(piperazin-1-yl)phenyl)pyrazolo[1,5-a]pyrimidin-3-yl)quinolin-7-amine] was tested, and the IC50 [1] was 44 nM.
`Oc1ccc2c(-c3cnn4cc(-c5ccc(N6CCNCC6)cc5)cnc34)ccnc2c1` [Compound 28, 4-(6-(4-(piperazin-1-yl)phenyl)pyrazolo[1,5-a]pyrimidin-3-yl)quinolin-7-ol] gave an IC50 [1] of 31 nM.
In the case of `c1cc(-c2cnn3cc(-c4ccc(OCCN5CCCCC5)nc4)cnc23)c2cccnc2c1` [Compound 29, 5-(6-(6-(2-(piperidin-1-yl)ethoxy)pyridin-3-yl)pyrazolo[1,5-a]pyrimidin-3-yl)quinoline], the IC50 [1] is reported as 127 nM.
`c1cc(-c2cnn3cc(-c4ccc(N5CCNCC5)nc4)cnc23)c2cccnc2c1` [Compound 30, 5-(6-(6-(piperazin-1-yl)pyridin-3-yl)pyrazolo[1,5-a]pyrimidin-3-yl)quinoline] showed an IC50 [1] of 84 nM.
`c1cc(-c2cnn3cc(-c4ccc(OCCN5CCCCC5)cc4)cnc23)c2cccnc2c1` [Compound 31, 5-(6-(4-(2-(piperidin-1-yl)ethoxy)phenyl)pyrazolo[1,5-a]pyrimidin-3-yl)quinoline] was tested, and the IC50 [1] was 38 nM.
With `CC(C)(CN1CCCCC1)Oc1ccc(-c2cnc3c(-c4cccc5ncccc45)cnn3c2)cc1` [Compound 32, 5-(6-(4-((2-methyl-1-(piperidin-1-yl)propan-2-yl)oxy)phenyl)pyrazolo[1,5-a]pyrimidin-3-yl)quinoline] the IC50 [1] was 106 nM.
For `C[C@@H]1CNC[C@H](C)N1c1ccc(-c2cnc3c(-c4ccnc5ccccc45)cnn3c2)cn1` [Compound 33, 4-(6-(6-((2R,6S)-2,6-dimethylpiperazin-1-yl)pyridin-3-yl)pyrazolo[1,5-a]pyrimidin-3-yl)quinoline], the IC50 [1] was 22 nM.
With `C[C@@H]1CNC[C@H](C)N1c1ccc(-c2cnc3c(-c4cccc5ncccc45)cnn3c2)cn1` [Compound 34] the IC50 [1] was 56 nM.
In the case of `Clc1cc(-c2cnc3c(-c4ccnc5ccccc45)cnn3c2)ccc1N1CCNCC1` [Compound 35, 4-(6-(3-chloro-4-(piperazin-1-yl)phenyl)pyrazolo[1,5-a]pyrimidin-3-yl)quinoline], the IC50 [1] is reported as 30 nM.
`Clc1cc(-c2cnc3c(-c4cccc5ncccc45)cnn3c2)ccc1N1CCNCC1` [Compound 36, 5-(6-(3-chloro-4-(piperazin-1-yl)phenyl)pyrazolo[1,5-a]pyrimidin-3-yl)quinoline] gave an IC50 [1] of 46 nM.
For `N#Cc1cc(-c2cnc3c(-c4ccnc5ccccc45)cnn3c2)ccc1N1CCNCC1` [Compound 37, 2-(piperazin-1-yl)-5-(3-(quinolin-4-yl)pyrazolo[1,5-a]pyrimidin-6-yl)benzonitrile], the IC50 [1] was 24 nM.
`N#Cc1cc(-c2cnc3c(-c4cccc5ncccc45)cnn3c2)ccc1N1CCNCC1` [Compound 38] showed an IC50 [1] of 47 nM.
In the case of `Fc1cc(-c2cnc3c(-c4ccnc5ccccc45)cnn3c2)ccc1N1CCNCC1` [Compound 39], the IC50 [1] is reported as 15 nM.
Molecule `Fc1cc(-c2cnc3c(-c4cccc5ncccc45)cnn3c2)ccc1N1CCNCC1` [Compound 40] has an IC50 [1] of 32 nM.
`c1ccc2c(-c3cnn4cc(-c5ccc(OCCN6CCNCC6)nc5)cnc34)ccnc2c1` [Compound 41, 4-(6-(6-(2-(piperazin-1-yl)ethoxy)pyridin-3-yl)pyrazolo[1,5-a]pyrimidin-3-yl)quinoline] gave an IC50 [1] of 22 nM.
With `c1cc(-c2cnn3cc(-c4ccc(OCCN5CCNCC5)nc4)cnc23)c2cccnc2c1` [Compound 42, 5-(6-(6-(2-(piperazin-1-yl)ethoxy)pyridin-3-yl)pyrazolo[1,5-a]pyrimidin-3-yl)quinoline] the IC50 [1] was 14 nM.
`CN1CCN(CCOc2ccc(-c3cnc4c(-c5ccnc6ccccc56)cnn4c3)cn2)CC1` [Compound 43, 4-(6-(6-(2-(4-methylpiperazin-1-yl)ethoxy)pyridin-3-yl)pyrazolo[1,5-a]pyrimidin-3-yl)quinoline] showed an IC50 [1] of 122 nM.
With `CN1CCN(CCOc2ccc(-c3cnc4c(-c5cccc6ncccc56)cnn4c3)cn2)CC1` [Compound 44, 5-(6-(6-(2-(4-methylpiperazin-1-yl)ethoxy)pyridin-3-yl)pyrazolo[1,5-a]pyrimidin-3-yl)quinoline] the IC50 [1] was 17 nM.
`Clc1cc(-c2cnc3c(-c4ccnc5ccccc45)cnn3c2)ccc1OCCN1CCCCC1` [Compound 45, 4-(6-(3-chloro-4-(2-(piperidin-1-yl)ethoxy)phenyl)pyrazolo[1,5-a]pyrimidin-3-yl)quinoline] gave an IC50 [1] of 56 nM.
`Clc1cc(-c2cnc3c(-c4cccc5ncccc45)cnn3c2)ccc1OCCN1CCCCC1` [Compound 46] showed an IC50 [1] of 16 nM.
Molecule `[2H]c1ccc2c(-c3cnn4cc(-c5ccc(OCCN6CCCCC6)cn5)cnc34)cccc2n1` [Compound 47, 5-(6-(5-(2-(piperidin-1-yl)ethoxy)pyridin-2-yl)pyrazolo[1,5-a]pyrimidin-3-yl)-2-^2H-quinoline] has an IC50 of 94 nM.
In the case of `Cc1ccc2c(-c3cnn4cc(-c5ccc(OCCN6CCNCC6)cn5)cnc34)cccc2n1` [Compound 50, 2-methyl-5-(6-(5-(2-(piperazin-1-yl)ethoxy)pyridin-2-yl)pyrazolo[1,5-a]pyrimidin-3-yl)quinoline], the IC50 [1] is reported as 643 nM.
